Experimental data as given in article PMC6858373 (Scientific Reports, 2019).
Entries after “also recorded” stand apart in the source; their conditions may differ. Structures can show the parent of a compound that is named as a salt. Where two headings read alike, the source gives them in different places.

How the values were obtained:
[1] = molecular target: T1, FGF14:Nav1.6 C-tail complex (Homo sapiens, UniProt Q92915+Q9UQD0); assay: Split-luciferase complementation assay (LCA) in Clone V double stable HEK293 cells; assay type: cell-based; details: for Split Luciferase Assay Z-score Set 1 / Split Luciferase Assay % Lum Set 1: biological replicate Set 1; for Split Luciferase Assay Z-score Set 1 / Split Luciferase Assay Z-score Set 2: normalized to on-plate 0.3% DMSO controls; for Split Luciferase Assay % Lum Set 1 / Split Luciferase Assay %Lum Set 2: normalized to on-plate 0.3% DMSO controls (n=16 per plate); for Split Luciferase Assay Z-score Set 2 / Split Luciferase Assay %Lum Set 2: biological replicate Set 2; for Split Luciferase Assay %Lum Avg: average of Set 1 and Set 2, normalized to 0.3% DMSO controls
T1 construct: polymerase chain reaction (PCR) amplification of the FGF14 open reading frame (nt 1–855); C-terminal fragment of Nav1.6 (amino acids 1763–1976) fused with CD4ΔC-tail (amino acids 1–395); expressed in transfected cells

[2] = molecular target: full-length P. pyralis luciferase (Photinus pyralis, UniProt P08659, K549A/L550V/N119G/N50D/S548I); assay type: cell-based; details: for Luciferase Assay % Lum: full-length luciferase counter-screen luminescence; for Luciferase Assay Z-score: full-length luciferase counter-screen
[3] = CC_NCI screening, normalized to on-plate 0.3% DMSO controls
[4] = CC_NCI screening, LCA luminescence

full-length P. pyralis luciferase, sequence (P08659 whole entry N50D/N119G/S548I/K549A/L550V, looked up): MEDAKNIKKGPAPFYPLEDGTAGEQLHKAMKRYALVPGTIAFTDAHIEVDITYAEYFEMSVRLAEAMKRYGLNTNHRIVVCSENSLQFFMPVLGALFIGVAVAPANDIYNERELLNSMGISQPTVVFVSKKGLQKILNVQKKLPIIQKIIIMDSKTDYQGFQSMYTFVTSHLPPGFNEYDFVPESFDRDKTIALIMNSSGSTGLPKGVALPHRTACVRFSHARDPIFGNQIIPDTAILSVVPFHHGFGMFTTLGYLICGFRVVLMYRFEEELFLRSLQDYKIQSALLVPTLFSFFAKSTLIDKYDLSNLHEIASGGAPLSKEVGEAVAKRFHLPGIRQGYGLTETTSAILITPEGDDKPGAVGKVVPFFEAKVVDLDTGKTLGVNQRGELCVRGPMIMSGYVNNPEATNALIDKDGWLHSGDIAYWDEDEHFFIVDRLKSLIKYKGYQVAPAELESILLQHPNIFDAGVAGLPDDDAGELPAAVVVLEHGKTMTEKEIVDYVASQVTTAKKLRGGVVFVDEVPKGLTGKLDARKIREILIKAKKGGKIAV
T1 sequence (Q92915 1-252 isoform Q92915-2): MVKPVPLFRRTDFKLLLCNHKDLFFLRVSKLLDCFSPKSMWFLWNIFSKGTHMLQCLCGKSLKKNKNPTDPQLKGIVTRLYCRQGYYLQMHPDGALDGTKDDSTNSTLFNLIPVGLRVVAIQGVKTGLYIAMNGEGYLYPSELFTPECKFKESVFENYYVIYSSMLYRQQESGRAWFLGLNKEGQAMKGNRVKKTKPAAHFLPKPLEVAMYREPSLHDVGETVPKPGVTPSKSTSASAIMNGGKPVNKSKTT
T1 sequence (Q9UQD0 1763-1976 limits assumed): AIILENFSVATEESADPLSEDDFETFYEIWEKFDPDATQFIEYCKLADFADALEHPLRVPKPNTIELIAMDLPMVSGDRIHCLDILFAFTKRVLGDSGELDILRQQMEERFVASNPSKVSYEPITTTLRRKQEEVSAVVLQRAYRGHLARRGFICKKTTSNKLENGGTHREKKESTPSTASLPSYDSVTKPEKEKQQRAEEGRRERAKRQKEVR

COc1cc(N2CCC(N3CCN(C)CC3)CC2)ccc1Nc1ncc(Cl)c(Nc2ccccc2S(=O)(=O)C(C)C)n1 [NVP TAE684]
Split Luciferase Assay Z-score Set 1 ([1]; CC_NCI screening): -7.35
Split Luciferase Assay % Lum Set 1 ([1]; CC_NCI screening): 9.02%
Split Luciferase Assay Z-score Set 2 ([1]; CC_NCI screening): -7.71
Split Luciferase Assay %Lum Set 2 ([1]; CC_NCI screening): 5.20%
Split Luciferase Assay %Lum Avg [1]: 7.11%
Luciferase Assay % Lum (full-length luciferase counter-screen) [2, 3]: 96.39%
Luciferase Assay Z-score (full-length luciferase counter-screen) [2, 3]: -0.46
Toxicity Assay % Fluor (CTB cell viability fluorescence) (Clone V cells): 37.86%
Toxicity Assay Z-score (CTB cell viability) (Clone V cells): -8.69

Cn1c(=O)n(-c2ccc(C(C)(C)C#N)cc2)c2c3cc(-c4cnc5ccccc5c4)ccc3ncc21 [BEZ 235]
Split Luciferase Assay % Lum Set 1 [1, 4]: 91.64%
Split Luciferase Assay %Lum Set 2 [1, 4]: 100.91%
Split Luciferase Assay Z-score Set 1 ([1]; CC_NCI screening, LCA): -0.68
Split Luciferase Assay Z-score Set 2 ([1]; CC_NCI screening, LCA): 0.07
Split Luciferase Assay %Lum Avg ([1]; CC_NCI screening): 96.28%
Luciferase Assay % Lum [2, 3]: 98.68%
Luciferase Assay Z-score [2, 3]: -0.17
Toxicity Assay % Fluor (Clone V cells; human, 16 h, 30 µM): 90.66%
Toxicity Assay Z-score (Clone V cells; human, 16 h, 30 µM): -1.31

CS(=O)(=O)CCNCc1ccc(-c2ccc3ncnc(Nc4ccc(OCc5cccc(F)c5)c(Cl)c4)c3c2)o1 [Lapatinib]
Split Luciferase Assay Z-score Set 1 ([1]; CC_NCI screening): 1.35
Split Luciferase Assay Z-score Set 2 ([1]; CC_NCI screening): -1.87
Split Luciferase Assay %Lum Set 2 ([1]; CC_NCI screening): 76.98%
Split Luciferase Assay %Lum Avg [1]: 96.81%
Luciferase Assay % Lum (full-length luciferase counter-screen) [2]: 75.39%
Luciferase Assay Z-score (full-length luciferase counter-screen) [2]: -3.15
Toxicity Assay % Fluor (CTB cell viability fluorescence) (Clone V cells): 114.10%
Toxicity Assay Z-score (CTB cell viability) (Clone V cells): 1.97

O=[As]O[As]=O (stereo not drawn) [Arsenic trioxide]
Split Luciferase Assay % Lum Set 1 [1, 4]: 20.98%
Split Luciferase Assay %Lum Set 2 [1, 4]: 29.13%
Split Luciferase Assay Z-score Set 1 ([1]; CC_NCI screening, LCA): -6.39
Split Luciferase Assay Z-score Set 2 ([1]; CC_NCI screening, LCA): -5.77
Split Luciferase Assay %Lum Avg ([1]; CC_NCI screening): 25.05%
Luciferase Assay % Lum [2, 3]: 96.86%
Luciferase Assay Z-score [2, 3]: -0.40
Toxicity Assay % Fluor (Clone V cells): 84.44%
Toxicity Assay Z-score (Clone V cells): -2.18

O=C(Nc1cccc(Nc2ncc(Br)c(NCCc3cnc[nH]3)n2)c1)N1CCCC1 [BX 912, reference compound]
Z-score (LCA primary screening) ([1]; 30 µM, 384-well, average of primary screening (n = 2), vs on-plate 0.3% DMSO): −5.04
dose-response behavior of repurchased compounds ([1]; 10-point dose response 0.25-50 µM, Clone V cells): counter acting activity as a function of dosage; also recorded: act as enhancers at lower concentrations
Split Luciferase Assay % Lum Set 1 [1, 4]: 35.11%
Split Luciferase Assay %Lum Set 2 [1, 4]: 40.57%
Split Luciferase Assay Z-score Set 1 ([1]; CC_NCI screening, LCA): -5.24
Split Luciferase Assay Z-score Set 2 ([1]; CC_NCI screening, LCA): -4.84
Split Luciferase Assay %Lum Avg ([1]; CC_NCI screening): 37.84%
IMin (% Luminescence) ([1]; antagonists, Clone V cells, 384-well, normalized to DMSO): 37.84 % Luminescence
action toward the FGF14:Nav1.6 C-tail interaction ([1]; dose-dependency validation using fresh compound samples): acted as antagonists
IC50 ([1]; estimated, 8-point dose response 0.25-30 µM, n = 4 per concentration, library compounds, read-out: IC50): 9.23 µM
IC50 ([1]; repurchased compounds, 10-point dose response 0.25-50 µM, n = 8 per concentration, Clone V cells, 384-well, read-out: in-cell IC50): 6.8 µM
Luciferase Assay % Lum [2, 3]: 85.82%
Luciferase Assay Z-score [2, 3]: -1.82
Toxicity Assay % Fluor (Clone V cells): 106.22%
Toxicity Assay Z-score (Clone V cells): 0.87

NC1(c2ccc(-c3nc4ccn5c(=O)[nH]nc5c4cc3-c3ccccc3)cc2)CCC1 [MK-2206]
Split Luciferase Assay % Lum Set 1 [1, 4]: 48.16%
Split Luciferase Assay %Lum Set 2 [1, 4]: 47.85%
Split Luciferase Assay Z-score Set 1 ([1]; CC_NCI screening, LCA): -4.19
Split Luciferase Assay Z-score Set 2 ([1]; CC_NCI screening, LCA): -4.24
Split Luciferase Assay %Lum Avg ([1]; CC_NCI screening): 48.01%
Luciferase Assay % Lum [2, 3]: 85.95%
Luciferase Assay Z-score [2, 3]: -1.80
Toxicity Assay % Fluor (Clone V cells; human, 16 h, 30 µM): 95.56%
Toxicity Assay Z-score (Clone V cells; human, 16 h, 30 µM): -0.62

O=C1NC(=O)/C(=C/c2ccc(-c3ccc(F)cc3O)o2)S1 [AS 252424]
Split Luciferase Assay Z-score Set 1 ([1]; CC_NCI screening): -3.31
Split Luciferase Assay % Lum Set 1 ([1]; CC_NCI screening): 59.03%
Split Luciferase Assay Z-score Set 2 ([1]; CC_NCI screening): -4.84
Split Luciferase Assay %Lum Set 2 ([1]; CC_NCI screening): 40.57%
Split Luciferase Assay %Lum Avg [1]: 49.80%
Luciferase Assay % Lum (full-length luciferase counter-screen) [2, 3]: 69.90%
Luciferase Assay Z-score (full-length luciferase counter-screen) [2, 3]: -3.86
Toxicity Assay % Fluor (CTB cell viability fluorescence) (Clone V cells): 99.49%
Toxicity Assay Z-score (CTB cell viability) (Clone V cells): -0.07

Cn1cc(CNCC2CCN(c3ncc(C(=O)NO)cn3)CC2)c2ccccc21 [JNJ-26481585]
Split Luciferase Assay % Lum Set 1 [1, 4]: 112.30%
Split Luciferase Assay %Lum Set 2 [1, 4]: 109.23%
Split Luciferase Assay Z-score Set 1 ([1]; CC_NCI screening, LCA): 0.99
Split Luciferase Assay Z-score Set 2 ([1]; CC_NCI screening, LCA): 0.75
Split Luciferase Assay %Lum Avg ([1]; CC_NCI screening): 110.77%
Luciferase Assay % Lum [2, 3]: 97.58%
Luciferase Assay Z-score [2, 3]: -0.31
Toxicity Assay % Fluor (Clone V cells): 96.89%
Toxicity Assay Z-score (Clone V cells): -0.43

COc1cccc2c1C(=O)c1c(O)c3c(c(O)c1C2=O)C[C@@](O)(C(=O)CO)C[C@@H]3O[C@H]1C[C@H](N)[C@@H](O)[C@H](C)O1 [Epirubicin hydrochloride]
Split Luciferase Assay % Lum Set 1 [1, 4]: 44.90%
Split Luciferase Assay %Lum Set 2 [1, 4]: 45.77%
Split Luciferase Assay Z-score Set 1 ([1]; CC_NCI screening, LCA): -4.45
Split Luciferase Assay Z-score Set 2 ([1]; CC_NCI screening, LCA): -4.41
Split Luciferase Assay %Lum Avg ([1]; CC_NCI screening): 45.34%
Luciferase Assay % Lum [2, 3]: 76.16%
Luciferase Assay Z-score [2, 3]: -3.05
Toxicity Assay % Fluor (Clone V cells; human, 16 h, 30 µM): 86.21%
Toxicity Assay Z-score (Clone V cells; human, 16 h, 30 µM): -1.93

C=C(c1ccc(C(=O)O)cc1)c1cc2c(cc1C)C(C)(C)CCC2(C)C [BEXAROTENE]
Split Luciferase Assay % Lum Set 1 [1, 4]: 129.69%
Split Luciferase Assay %Lum Set 2 [1, 4]: 99.87%
Split Luciferase Assay Z-score Set 1 ([1]; CC_NCI screening, LCA): 2.40
Split Luciferase Assay Z-score Set 2 ([1]; CC_NCI screening, LCA): -0.01
Split Luciferase Assay %Lum Avg ([1]; CC_NCI screening): 114.78%
Luciferase Assay % Lum [2, 3]: 99.04%
Luciferase Assay Z-score [2, 3]: -0.12
Toxicity Assay % Fluor (Clone V cells; human, 16 h, 30 µM): 86.80%
Toxicity Assay Z-score (Clone V cells; human, 16 h, 30 µM): -1.85

NC(=O)c1ccc(-c2nc(-c3ccc4c(c3)OCO4)c(-c3ccccn3)[nH]2)cc1 [SB 431542]
Split Luciferase Assay % Lum Set 1 [1, 4]: 112.30%
Split Luciferase Assay %Lum Set 2 [1, 4]: 114.43%
Split Luciferase Assay Z-score Set 1 ([1]; CC_NCI screening, LCA): 0.99
Split Luciferase Assay Z-score Set 2 ([1]; CC_NCI screening, LCA): 1.17
Split Luciferase Assay %Lum Avg ([1]; CC_NCI screening): 113.37%
Luciferase Assay % Lum [2, 3]: 93.14%
Luciferase Assay Z-score [2, 3]: -0.88
Toxicity Assay % Fluor (Clone V cells; human, 16 h, 30 µM): 90.72%
Toxicity Assay Z-score (Clone V cells; human, 16 h, 30 µM): -1.30

CCN(CC)CCCC(C)Nc1nc(C)cc(Nc2ccc3nc(C)cc(N)c3c2)n1 (stereo not drawn) [NSC23766]
Split Luciferase Assay Z-score Set 1 ([1]; CC_NCI screening): 0.12
Split Luciferase Assay % Lum Set 1 ([1]; CC_NCI screening): 101.43%
Split Luciferase Assay Z-score Set 2 ([1]; CC_NCI screening): -0.01
Split Luciferase Assay %Lum Set 2 ([1]; CC_NCI screening): 99.87%
Split Luciferase Assay %Lum Avg [1]: 100.65%
Luciferase Assay Z-score (full-length luciferase counter-screen) [2, 3]: 0.79
Toxicity Assay % Fluor (CTB cell viability fluorescence) (Clone V cells): 111.37%
Toxicity Assay Z-score (CTB cell viability) (Clone V cells): 1.59

c1cc(-c2cnn3cc(-c4ccc(OCCN5CCCCC5)cc4)cnc23)ccn1 [COMPOUND C]
Split Luciferase Assay Z-score Set 1 ([1]; CC_NCI screening): 3.01
Split Luciferase Assay Z-score Set 2 ([1]; CC_NCI screening): 1.26
Split Luciferase Assay %Lum Set 2 ([1]; CC_NCI screening): 115.47%
Split Luciferase Assay %Lum Avg [1]: 126.39%
Luciferase Assay % Lum (full-length luciferase counter-screen) [2, 3]: 104.57%
Luciferase Assay Z-score (full-length luciferase counter-screen) [2, 3]: 0.59
Toxicity Assay % Fluor (CTB cell viability fluorescence) (Clone V cells): 115.42%
Toxicity Assay Z-score (CTB cell viability) (Clone V cells): 2.16
